Data on twelve compounds can be found in patent US20260317324A1, “BIFUNCTIONAL COMPOUNDS FOR DEGRADING BRAF VIA UBIQUITIN PROTEOSOME PATHWAY” (Nurix Therapeutics, Inc., priority 2023, published 2026).

The target of this experiment is T1, BRAF V600E (Homo sapiens, UniProt P15056, V600E).
T1 construct: endogenous C-terminal HiBiT fusion tag on BRAF V600E allele; endogenous in cells; host or cells: A375 clone 1F10 (CRISPR-Cas9 knock-in of the HiBiT tag; parental A375 from ATCC)
Description: BRAF HiBiT degradation assay, C-terminal HiBiT-tagged BRAF V600E A375 cells (clone 1F10), Nano-Glo HiBiT Lytic assay. The experiment is classed as cell-based. The conditions noted are these: for Dmax: A-375. The essentials:
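A375 cells (clone 1F10, endogenous C-terminal HiBiT on BRAF V600E) were seeded at 10,000 cells/well, grown 24 h, then dosed in duplicate with an 11-point series from 1 μM to 0.01 nM (0.2% DMSO). Nano-Glo HiBiT lytic luminescence was normalised to DMSO and wildtype-A375 background; DC50 was read at 50% protein remaining, alongside observed Dmax.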

Setting [1] is: A375 (BRAF V600E), DC50 at 50%: fitted conc. at Y=50.
[2] abbreviates: A375 (BRAF V600E), percentage protein degraded at maximal compound effect relative to DMSO.
Setting [3] is: A375 (BRAF V600E, Class 1), DC50 at 50% degradation.
Where [4] appears, read: A375 (BRAF V600E, Class 1), observed Dmax, % protein degraded relative to DMSO control.

Bounds are passed on as bounds.

T1 sequence (P15056 whole entry V600E, the tested form may be a part): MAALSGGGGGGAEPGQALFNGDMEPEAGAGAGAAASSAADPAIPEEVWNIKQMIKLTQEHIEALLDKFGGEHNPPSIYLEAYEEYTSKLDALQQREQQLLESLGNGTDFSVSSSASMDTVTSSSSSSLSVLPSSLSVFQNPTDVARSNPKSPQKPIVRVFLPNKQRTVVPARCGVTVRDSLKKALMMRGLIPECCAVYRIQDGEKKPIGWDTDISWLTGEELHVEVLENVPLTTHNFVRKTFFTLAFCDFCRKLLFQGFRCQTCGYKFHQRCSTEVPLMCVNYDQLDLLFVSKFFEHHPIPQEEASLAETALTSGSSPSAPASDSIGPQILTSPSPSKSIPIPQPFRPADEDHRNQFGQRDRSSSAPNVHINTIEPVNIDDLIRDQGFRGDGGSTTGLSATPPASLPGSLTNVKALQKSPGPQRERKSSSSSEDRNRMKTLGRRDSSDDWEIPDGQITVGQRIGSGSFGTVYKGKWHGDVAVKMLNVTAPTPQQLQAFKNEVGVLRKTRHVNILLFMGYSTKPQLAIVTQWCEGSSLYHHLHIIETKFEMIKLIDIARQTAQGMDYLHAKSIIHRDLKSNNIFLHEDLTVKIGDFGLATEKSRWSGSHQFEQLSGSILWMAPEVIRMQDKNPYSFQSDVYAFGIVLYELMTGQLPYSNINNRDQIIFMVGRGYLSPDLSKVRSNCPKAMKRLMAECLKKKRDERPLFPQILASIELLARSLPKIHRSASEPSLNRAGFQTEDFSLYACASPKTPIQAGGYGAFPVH

For orientation: DC50 means the concentration at which degradation of the target reaches its halfway point. By Dmax is commonly meant the greatest extent of degradation seen. Read a low Dmax as shallow degradation. The compound `CCCS(=O)(=O)Nc1cccc(-c2cn(-c3ccc(OC4CCN(C(=O)C5CCN(c6ccc(C7CCC(=O)NC7=O)cn6)CC5)CC4)cc3)nc2-c2ccncc2)c1F` (racemic) [Compound 5, Rac-N-{3-[1-(4-{[1-(1-{5-[(3R)-2,6-dioxopiperidin-3-yl]pyridin-2-yl}piperidine-4-carbonyl)piperidin-4-yl]oxy}phenyl)-3-(pyridin-4-yl)-1H-pyrazol-4-yl]-2-fluorophenyl}propane-1-sulfonamide] displayed a DC50 under setting [1] of 50 to 500 nM. This compound showed a Dmax under setting [2] of 30 to 70%.

On to `CCCS(=O)(=O)Nc1cccc(-c2nc(-c3ccc(N4CCN(C(=O)C5CCN(c6ccc(C7CCC(=O)NC7=O)cn6)CC5)CC4)cc3)sc2-c2ccnc(N)n2)c1F` (racemic) [Compound 188, Rac-N-{3-[5-(2-aminopyrimidin-4-yl)-2-{4-[4-(1-{5-[(3R)-2,6-dioxopiperidin-3-yl]pyridin-2-yl}piperidine-4-carbonyl)piperazin-1-yl]phenyl}-1,3-thiazol-4-yl]-2-fluorophenyl}propane-1-sulfonamide], for which the DC50 under setting [1] was < 10 nM. Under setting [2], the Dmax is > 70%.

`CCCS(=O)(=O)Nc1cccc(-c2nc(-c3ccc(N4CCN(C(=O)CC5CCN(c6ccc(C7CCC(=O)NC7=O)cn6)CC5)CC4)cc3)sc2-c2ccnc(N)n2)c1F` (racemic) [Compound 189, Rac-N-{3-[5-(2-aminopyrimidin-4-yl)-2-(4-{4-[2-(1-{5-[(3R)-2,6-dioxopiperidin-3-yl]pyridin-2-yl}piperidin-4-yl)acetyl]piperazin-1-yl}phenyl)-1,3-thiazol-4-yl]-2-fluorophenyl}propane-1-sulfonamide]: under setting [1], the DC50 was < 10 nM. Moreover, under setting [2], the Dmax was > 70%.

`CCCS(=O)(=O)Nc1cccc(-c2nc(C3CCC4(CC3)CN(C(=O)CN3CCC5(CC3)CN(c3ccc6c(c3)C(=O)N(C3CCC(=O)NC3=O)C6=O)C5)C4)sc2-c2ccnc(N)n2)c1F` (racemic) [Compound 236, Rac-N-{3-[5-(2-aminopyrimidin-4-yl)-2-{2-[2-(2-{2-[(3R)-2,6-dioxopiperidin-3-yl]-1,3-dioxo-2,3-dihydro-1H-isoindol-5-yl}-2,7-diazaspiro[3.5]nonan-7-yl)acetyl]-2-azaspiro[3.5]nonan-7-yl}-1,3-thiazol-4-yl]-2-fluorophenyl}propane-1-sulfonamide]: the DC50 under setting [1] was < 10 nM. For the same compound, under setting [2], the Dmax was > 70%.

As for `CCCS(=O)(=O)Nc1cccc(-c2nc(C(C)(C)C)sc2-c2ccnc(Nc3cnn(CC4CCN(CC5CCN(c6ccc(C(=O)NC7CCC(=O)NC7=O)nc6)CC5)CC4)c3)n2)c1F` (racemic) [Compound 82, Rac-5-(4-{[4-({4-[(4-{2-tert-butyl-4-[2-fluoro-3-(propane-1-sulfonamido)phenyl]-1,3-thiazol-5-yl}pyrimidin-2-yl)amino]-1H-pyrazol-1-yl}methyl)piperidin-1-yl]methyl}piperidin-1-yl)-N-[(3R)-2,6-dioxopiperidin-3-yl]pyridine-2-carboxamide], the DC50 under setting [1] lay in the range of 10 to 50 nM. The Dmax under setting [2] lay in the range of 30 to 70%.

For `CCCS(=O)(=O)Nc1cccc(-c2nc(C)sc2-c2ccnc(Nc3ccc(C4CCN(C(=O)C5CCN(c6ccc(C7CCC(=O)NC7=O)cn6)CC5)CC4)cc3)n2)c1F` (racemic) [Compound 55, Rac-N-(3-{5-[2-({4-[1-(1-{5-[(3R)-2,6-dioxopiperidin-3-yl]pyridin-2-yl}piperidine-4-carbonyl)piperidin-4-yl]phenyl}amino)pyrimidin-4-yl]-2-methyl-1,3-thiazol-4-yl}-2-fluorophenyl)propane-1-sulfonamide], the DC50 under setting [1] lay in the range of 10 to 50 nM. In addition, the Dmax under setting [2] is > 70%.

In the case of `CCCS(=O)(=O)Nc1cccc(-c2nc(C(C)(C)C)sc2-c2ccnc(NC3CC4(CCN(C[C@H]5CC[C@H](Oc6ccc(C7CCC(=O)NC7=O)cc6)CC5)CC4)C3)n2)c1F` (mixture of isomers) [Compound 130, N-[3-(2-tert-butyl-5-{2-[(7-{[(1r,4r)-4-{4-[(3RS)-2,6-dioxopiperidin-3-yl]phenoxy}cyclohexyl]methyl}-7-azaspiro[3.5]nonan-2-yl)amino]pyrimidin-4-yl}-1,3-thiazol-4-yl)-2-fluorophenyl]propane-1-sulfonamide], under setting [1], the half-maximal degradation concentration (DC50) was > 500 nM. Under setting [2], this compound yielded a Dmax of 30 to 70%.

Regarding `CCCS(=O)(=O)Nc1cccc(-c2nc(C(C)(C)C)sc2-c2ccnc(Nc3ccc(C4CCN(CC5CCN(c6ccc([C@@H]7CCC(=O)NC7=O)cc6)CC5)CC4)cc3)n2)c1F` [Compound 90, N-[3-(2-tert-butyl-5-{2-[(4-{1-[(1-{4-[(3S)-2,6-dioxopiperidin-3-yl]phenyl}piperidin-4-yl)methyl]piperidin-4-yl}phenyl)amino]pyrimidin-4-yl}-1,3-thiazol-4-yl)-2-fluorophenyl]propane-1-sulfonamide], under setting [1], the DC50 fell in the range of 10 to 50 nM. Moreover, the Dmax under setting [2] was in the range of 30 to 70%.

In turn, `CCCS(=O)(=O)Nc1cccc(-c2nc(C(C)(C)C)sc2-c2ccnc(Nc3cccc(OC4CCN(C(=O)C5CCN(c6cccc(C7CCC(=O)NC7=O)c6)CC5)CC4)c3)n2)c1F` (racemic) [Compound 99, Rac-N-[3-(2-tert-butyl-5-{2-[(3-{[1-(1-{3-[(3R)-2,6-dioxopiperidin-3-yl]phenyl}piperidine-4-carbonyl)piperidin-4-yl]oxy}phenyl)amino]pyrimidin-4-yl}-1,3-thiazol-4-yl)-2-fluorophenyl]propane-1-sulfonamide] had a DC50 under setting [1] of 10 to 50 nM. This compound came in with a Dmax under setting [2] of 30 to 70%.

`CCCS(=O)(=O)Nc1cccc(-c2nc(C3CCC4(CC3)CCN(CC3CCN(c5ccc(C6CCC(=O)NC6=O)cc5)CC3)CC4)sc2-c2ccnc(N)n2)c1F` (racemic) [Compound 256, Rac-N-{3-[5-(2-aminopyrimidin-4-yl)-2-{3-[(1-{4-[(3R)-2,6-dioxopiperidin-3-yl]phenyl}piperidin-4-yl)methyl]-3-azaspiro[5.5]undecan-9-yl}-1,3-thiazol-4-yl]-2-fluorophenyl}propane-1-sulfonamide]: the DC50 under setting [3] fell in the range of 50 to 500 nM. Moreover, the Dmax under setting [4] fell in the range of 30 to 70%.

Regarding `CCCS(=O)(=O)Nc1cccc(-c2cn(-c3ccc(N4CCN(CC5(C)CCN(c6ccc(C7CCC(=O)NC7=O)cn6)CC5)CC4)cc3)nc2-c2ccncc2)c1F` (racemic) [Compound 17, Rac-N-{3-[1-(4-{4-[(1-{5-[(3R)-2,6-dioxopiperidin-3-yl]pyridin-2-yl}-4-methylpiperidin-4-yl)methyl]piperazin-1-yl}phenyl)-3-(pyridin-4-yl)-1H-pyrazol-4-yl]-2-fluorophenyl}propane-1-sulfonamide], the DC50 under setting [1] fell in the range of 50 to 500 nM. The compound further displayed a Dmax under setting [2] of 30 to 70%.

As to `CCCS(=O)(=O)Nc1cccc(-c2nc(C3CCN(Cc4ccc(C(=O)N[C@@H]5CCC(=O)NC5=O)cc4)CC3)sc2-c2ccnc(N)n2)c1F` [Compound 255, 4-({4-[5-(2-aminopyrimidin-4-yl)-4-[2-fluoro-3-(propane-1-sulfonamido)phenyl]-1,3-thiazol-2-yl]piperidin-1-yl}methyl)-N-[(3R)-2,6-dioxopiperidin-3-yl]benzamide], the DC50 under setting [3] is > 500 nM. Moreover, the Dmax under setting [4] is < 30%.
